# Measurements taken from US12677834B2, “Silver silicalite zeolite nanomaterials for reducing Candida auris biofilms” (Imam Abdulrahman Bin Faisal University, priority 2023, dated 2026).
# Tests used:
# Candida auris biofilm = assay: Biofilm CFU killing assay (96-well microtiter plate, 24 and 48 h); format: cell-based; conditions: clade 3 (strain CA9), compared to clade 1 and clade 2; AgNO3 0.0250 to 0.0025 mg/mL
# Description: C. auris strains, the clinical isolates, were used to study the effects of the nanomaterial on biofilm formation for 24 and 48 h. All analyses were performed with replicates, and mean values were considered. Initially, culture cells from preserved stock at -80° C. were revived by streaking onto Sabauraud dextrose agar (SDA) plates and incubating overnight at 37° C. From the revived plates, a loopful of the strains was inoculated into SDB and further incubated using an orbital shaker at 130 rpm and 37° C. for 24 and 48 h. The biofilm assay was carried out using the 96-well microtiter plate. The cells harvested from overnight SDB cultures were adjusted to a cell density of 10^7 CFU/mL and diluted. […] Post incubation, plates were manually counted and recorded for the number of cells. Later, the quantity of biofilm formation was determined using a colony-forming unit technique (CFU) and determined as per the following formula: A/B×100 (A is the total number of colonies after treatment and B is the number of cells in control). […] Later, the quantity of biofilm formation was determined using the CFU technique. […] Post incubation, plates were manually counted and recorded for the number of cells. Then, the quantity of biofilm formation was determined using the CFU technique and determined as per the following formula: CFU/mL=(Number of colonies×dilution factor)/volume of plated culture. […]
# planktonic C. auris = assay: Effect on planktonic C. auris by light microscopy; format: cell-based, Candida auris; conditions: clade 3 (strain CA9), compared to clade 1 and clade 2; AgNO3 0.0250 to 0.0025 mg/mL
# Description: The antifungal activity of the nanomaterial on planktonic C. auris strains was determined by using light microscopy examination. Briefly, the inoculum was adjusted to a final concentration of 10^6 cells mL^−1. […] Plates were incubated at 37° C. for 48 h. […] The mean value of the duplicates was recorded, and micrographs were taken. One-way ANOVA analysis was carried out to identify the significance.
smiles,measurement,setting,value
"O=[N+]([O-])[O-].[Ag+] [AgNO3, silver nitrate]",inhibitory effect on the biofilm,Candida auris biofilm,complete inhibitory effect
same,inhibitory effect on the planktonic cells,planktonic C. auris,complete inhibitory effect
